Biological target: HPK1 (Homo sapiens (Human), UniProt Q92918)
Test: HPK1 Inhibition Assay (ADP-Glo kinase assay)
Type: biochemical
Settings: ATP 10 μM
How it was run: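 ADP-Glo luminescence read-out after 1 h room-temperature kinase reaction with 10 μM ATP and 0.1 μg/ml MBP. Recombinant human HPK1 at 7.5 ng/μl; buffer 40 mM Tris pH 7.5, 20 mM MgCl2. Compounds serially diluted 5-fold over 10 points from 10 mM DMSO stock.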

Chain of HPK1 (Q92918 1-346 limits assumed): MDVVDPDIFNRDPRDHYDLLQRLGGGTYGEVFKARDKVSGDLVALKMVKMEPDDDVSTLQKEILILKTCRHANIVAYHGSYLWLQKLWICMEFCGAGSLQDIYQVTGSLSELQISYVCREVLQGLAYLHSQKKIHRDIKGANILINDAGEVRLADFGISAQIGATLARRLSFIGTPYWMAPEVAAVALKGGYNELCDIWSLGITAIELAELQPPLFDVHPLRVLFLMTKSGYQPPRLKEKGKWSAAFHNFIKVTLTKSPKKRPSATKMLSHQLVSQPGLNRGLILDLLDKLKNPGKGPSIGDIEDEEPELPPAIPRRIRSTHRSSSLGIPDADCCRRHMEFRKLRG

IC50, < 100 nM:
CC1(C)CN(c2c(NC(=O)c3ccc(=O)n(-c4c(F)cccc4F)n3)ccc3nn([C@@H]4CCOC4)cc23)C[C@@H]1N [Example 322, N-(4-((R)-4-amino-3,3-dimethylpyrrolidin-1-yl)-2-((R)-tetrahydrofuran-3-yl)-2H-indazol-5-yl)-1-(2,6-difluorophenyl)-6-oxo-1,6-dihydropyridazine-3-carboxamide]
CC1(C)CN(c2c(NC(=O)c3ccc(=O)n(-c4c(F)cccc4F)n3)ccc3nn([C@@H]4CCOC4)cc23)C[C@H]1N [Example 323, N-(4-((S)-4-amino-3,3-dimethylpyrrolidin-1-yl)-2-((R)-tetrahydrofuran-3-yl)-2H-indazol-5-yl)-1-(2,6-difluorophenyl)-6-oxo-1,6-dihydropyridazine-3-carboxamide]
CC1(C)CN(c2c(NC(=O)c3ccc(=O)n(-c4c(F)cccc4F)n3)ccc3nn([C@H]4CCOC4)cc23)C[C@@H]1N [Example 324, N-(4-((R)-4-amino-3,3-dimethylpyrrolidin-1-yl)-2-((S)-tetrahydrofuran-3-yl)-2H-indazol-5-yl)-1-(2,6-difluorophenyl)-6-oxo-1,6-dihydropyridazine-3-carboxamide]
CC1(C)CN(c2c(NC(=O)c3ccc(=O)n(-c4c(F)cccc4F)n3)ccc3nn([C@H]4CCOC4)cc23)C[C@H]1N [Example 325, N-(4-((S)-4-amino-3,3-dimethylpyrrolidin-1-yl)-2-((S)-tetrahydrofuran-3-yl)-2H-indazol-5-yl)-1-(2,6-difluorophenyl)-6-oxo-1,6-dihydropyridazine-3-carboxamide]
C[C@H]1CN(c2c(NC(=O)c3ccc(=O)n(-c4c(F)cccc4F)n3)ccc3nn([C@@H]4CCOC4)cc23)C[C@@H]1N [Example 326, N-(4-((3R,4S)-3-amino-4-methylpyrrolidin-1-yl)-2-((R)-tetrahydrofuran-3-yl)-2H-indazol-5-yl)-1-(2,6-difluorophenyl)-6-oxo-1,6-dihydropyridazine-3-carboxamide]
C[C@H]1CN(c2c(NC(=O)c3ccc(=O)n(-c4c(F)cccc4F)n3)ccc3nn([C@H]4CCOC4)cc23)C[C@@H]1N [Example 327, N-(4-((3R,4S)-3-amino-4-methylpyrrolidin-1-yl)-2-((S)-tetrahydrofuran-3-yl)-2H-indazol-5-yl)-1-(2,6-difluorophenyl)-6-oxo-1,6-dihydropyridazine-3-carboxamide]
COCCn1cc2c(N3CC[C@@H](N)C3)c(NC(=O)c3ccc(=O)n(-c4c(F)cccc4F)n3)ccc2n1 [Example 328, (R)-N-(4-(3-aminopyrrolidin-1-yl)-2-(2-methoxyethyl)-2H-indazol-5-yl)-1-(2,6-difluorophenyl)-6-oxo-1,6-dihydropyridazine-3-carboxamide]
CCn1cc2c(N3CC[C@@H](N)C3)c(NC(=O)c3ccc(=O)n(-c4c(F)cccc4F)n3)ccc2n1 [Example 329, (R)-N-(4-(3-aminopyrrolidin-1-yl)-2-ethyl-2H-indazol-5-yl)-1-(2,6-difluorophenyl)-6-oxo-1,6-dihydropyridazine-3-carboxamide]
N[C@@H]1CCN(c2c(NC(=O)c3ccc(=O)n(-c4c(F)cccc4F)n3)ccc3nn(CC4CC4)cc23)C1 [Example 330, (R)-N-(4-(3-aminopyrrolidin-1-yl)-2-(cyclopropylmethyl)-2H-indazol-5-yl)-1-(2,6-difluorophenyl)-6-oxo-1,6-dihydropyridazine-3-carboxamide]
CC(C)Cn1cc2c(N3CC[C@@H](N)C3)c(NC(=O)c3ccc(=O)n(-c4c(F)cccc4F)n3)ccc2n1 [Example 331, (R)-N-(4-(3-aminopyrrolidin-1-yl)-2-isobutyl-2H-indazol-5-yl)-1-(2,6-difluorophenyl)-6-oxo-1,6-dihydropyridazine-3-carboxamide]
C[C@@H]1CN(c2c(NC(=O)c3ccc(=O)n(-c4c(F)cccc4F)n3)ccc3nn(C4CCC(F)(F)CC4)cc23)C[C@@H]1N [Example 332, N-(4-((3R,4R)-3-amino-4-methylpyrrolidin-1-yl)-2-(4,4-difluorocyclohexyl)-2H-indazol-5-yl)-1-(2,6-difluorophenyl)-6-oxo-1,6-dihydropyridazine-3-carboxamide]
C[C@@H]1CN(c2c(NC(=O)c3ccc(=O)n(-c4c(F)cccc4F)n3)ccc3nn(C4CCCC4)cc23)C[C@@H]1N [Example 333, N-(4-((3R,4R)-3-amino-4-methylpyrrolidin-1-yl)-2-cyclopentyl-2H-indazol-5-yl)-1-(2,6-difluorophenyl)-6-oxo-1,6-dihydropyridazine-3-carboxamide]
CC1(C)CN(c2c(NC(=O)c3ccc(=O)n(-c4c(F)cccc4F)n3)ccc3nn(C4CC4)cc23)C[C@@H]1N [Example 334, (R)-N-(4-(4-amino-3,3-dimethylpyrrolidin-1-yl)-2-cyclopropyl-2H-indazol-5-yl)-1-(2,6-difluorophenyl)-6-oxo-1,6-dihydropyridazine-3-carboxamide]
CC1(C)CN(c2c(NC(=O)c3ccc(=O)n(-c4c(F)cccc4F)n3)ccc3nn(C4CC4)cc23)C[C@H]1N [Example 335, (S)-N-(4-(4-amino-3,3-dimethylpyrrolidin-1-yl)-2-cyclopropyl-2H-indazol-5-yl)-1-(2,6-difluorophenyl)-6-oxo-1,6-dihydropyridazine-3-carboxamide]
N[C@H]1CN(c2c(NC(=O)c3ccc(=O)n(-c4c(F)cccc4F)n3)ccc3nn(C4CC4)cc23)CC12CC2 [Example 336, (R)-N-(4-(7-amino-5-azaspiro[2.4]heptan-5-yl)-2-cyclopropyl-2H-indazol-5-yl)-1-(2,6-difluorophenyl)-6-oxo-1,6-dihydropyridazine-3-carboxamide]
N[C@@H]1CCN(c2c(NC(=O)c3ccc(=O)n(-c4c(F)cccc4F)n3)ccc3nn(C4CCOCC4)cc23)C1 [Example 337, (R)-N-(4-(3-aminopyrrolidin-1-yl)-2-(tetrahydro-2H-pyran-4-yl)-2H-indazol-5-yl)-1-(2,6-difluorophenyl)-6-oxo-1,6-dihydropyridazine-3-carboxamide]
N[C@@H]1CCN(c2c(NC(=O)c3ccc(=O)n(-c4c(F)cccc4F)n3)ccc3nn(CC(F)(F)F)cc23)C1 [Example 338, (R)-N-(4-(3-aminopyrrolidin-1-yl)-2-(2,2,2-trifluoroethyl)-2H-indazol-5-yl)-1-(2,6-difluorophenyl)-6-oxo-1,6-dihydropyridazine-3-carboxamide]
[2H]C([2H])([2H])C(n1cc2c(N3C[C@H](N)C4(CC4)C3)c(NC(=O)c3ccc(=O)n(-c4c(F)cccc4F)n3)ccc2n1)C([2H])([2H])[2H] [Example 339]
CC(C)n1nnc2c(N3C[C@H](N)C4(CC4)C3)c(NC(=O)c3ccc(=O)n(-c4c(F)cccc4F)n3)ccc21 [Example 340, 1-(2,6-difluorophenyl)-N-{4-[(7R)-7-amino-5-azaspiro[2.4]heptan-5-yl]-1-(prop-2-yl)benzo[d][1,2,3]triazol-5-yl}-6-oxo-1,2-diazine-3-carboxamide]
CC(C)n1nnc2c(N3C[C@@H](C)[C@@H](N)C3)c(NC(=O)c3ccc(=O)n(-c4c(F)cccc4F)n3)ccc21 [Example 341, N-(4-((3R,4R)-3-amino-4-methylpyrrolidin-1-yl)-1-isopropyl-1H-benzo[d][1,2,3]triazol-5-yl)-1-(2,6-difluorophenyl)-6-oxo-1,6-dihydropyridazine-3-carboxamide]
N#Cc1ccncc1-c1ccc(NC(=O)c2ccc(=O)n(-c3c(F)cccc3F)n2)c(N2CCNCC2)c1 [Example 342, N-(4-(4-cyanopyridin-3-yl)-2-(piperazin-1-yl)phenyl)-1-(2,6-difluorophenyl)-6-oxo-1,6-dihydropyridazine-3-carboxamide]
N#Cc1ccncc1-c1ccc(NC(=O)c2ccc(=O)n(-c3c(F)cccc3F)n2)c(N2CC[C@@H](N)C2)c1 [Example 343, (R)-N-(2-(3-aminopyrrolidin-1-yl)-4-(4-cyanopyridin-3-yl)phenyl)-1-(2,6-difluorophenyl)-6-oxo-1,6-dihydropyridazine-3-carboxamide]
N#Cc1ccncc1-c1ccc(NC(=O)c2ccc(=O)n(-c3c(F)cccc3F)n2)c(N2CC[C@H](N)C2)c1 [Example 344, (S)-N-(2-(3-aminopyrrolidin-1-yl)-4-(4-cyanopyridin-3-yl)phenyl)-1-(2,6-difluorophenyl)-6-oxo-1,6-dihydropyridazine-3-carboxamide]
N#Cc1ccncc1-c1ccc(NC(=O)c2ccc(=O)n(-c3c(F)cccc3F)n2)c(N2CCC[C@@H](N)C2)c1 [Example 345, (R)-N-(2-(3-aminopiperidin-1-yl)-4-(4-cyanopyridin-3-yl)phenyl)-1-(2,6-difluorophenyl)-6-oxo-1,6-dihydropyridazine-3-carboxamide]
N#Cc1ccncc1-c1ccc(NC(=O)c2ccc(=O)n(-c3c(F)cccc3F)n2)c(N2CCC(N)CC2)c1 [Example 346, N-(2-(4-aminopiperidin-1-yl)-4-(4-cyanopyridin-3-yl)phenyl)-1-(2,6-difluorophenyl)-6-oxo-1,6-dihydropyridazine-3-carboxamide]
N#Cc1ccncc1-c1ccc(NC(=O)c2ccc(=O)n(-c3c(F)cccc3F)n2)c(N2C[C@@H](N)C[C@H]2CO)c1 [Example 347, N-(2-((2S,4S)-4-amino-2-(hydroxymethyl)pyrrolidin-1-yl)-4-(4-cyanopyridin-3-yl)phenyl)-1-(2,6-difluorophenyl)-6-oxo-1,6-dihydropyridazine-3-carboxamide]
